Measured values as given in patent US4331661A, “Bombesin analogs” (The Salk Institute for Biological Studies, priority 1980, dated 1982).
Non-standard residues stand in square brackets, D forms with d. Residues, ends and D or L forms follow the SMILES beside them. d(pGlu) = O=C1CC[C@H](C(=O)O)N1

Experiments:
[1] = test system: Male Sprague-Dawley-CD rats; experiment: Rise in plasma glucose after the 60 minute core temperature measurement; type: in vivo, rat; set-up: concentration or dose not given beside the values; conditions: rise in plasma glucose relative to Bombesin (= 100), after intracisternal injection
Description: Male Sprague-Dawley-CD rats weighing 180-200 grams each were housed in temperature and humidity controlled quarters. The rats were fed a standard rat food ration and tap water ad libitum. After being anesthetized with ether, peptides were injected into the cisterna magna of the brain of each rat. The peptides were dissolved in artificial CSF or distilled water. Ten microliters of a peptide solution containing the specified amounts of the peptide were injected. Immediately following the injection, the animals were transferred to a cold room maintained at 4° C. Rectal temperatures were recorded with a thermo-probe at 60 minutes following injection. All experiments were carried out in a randomized block design. Following analyses of variance, differences between groups were determined by the multiple range test of Dunnet and Duncan using the computer program Exbiol.
Following the 60 minute measurement of core temperature, the rats were rapidly decapitated, blood was collected and plasma levels of glucose were determined using a Beckman glucose analyzer. The results in causing a rise in plasma glucose relative to Bombesin are set forth hereinafter in Table III.

[2] = test system: Male Sprague-Dawley-CD rats; experiment: Thermoregulative properties: core (rectal) temperature of rats at 4° C. after intracisternal injection; type: in vivo, rat; conditions: 60 minutes following injection, control 36.5°
Description: The thermoregulative properties of the peptides were determined as follows:

[3] = test system: mammals; conditions: compared with neurotensin and bombesin; cited from earlier work

| Compound | POTENCY (Plasma Glucose) [1] | CORE TEMPERATURE ([2]; dosage 10 picomoles) [°C] | CORE TEMPERATURE ([2]; dosage 100 picomoles) [°C] | CORE TEMPERATURE ([2]; dosage 7 nanomoles) [°C] | CORE TEMPERATURE ([2]; dosage 7 picomoles) [°C] | CORE TEMPERATURE ([2]; dosage 20 picomoles) [°C] | CORE TEMPERATURE ([2]; dosage 70 picomoles) [°C] | CORE TEMPERATURE ([2]; dosage 1 nanomole) [°C] | potency (analgesic and thermoregulative effects) [3] |
| --- | --- | --- | --- | --- | --- | --- | --- | --- | --- |
| CSCC[C@H](NC(=O)[C@H](CC(C)C)NC(=O)[C@H](Cc1c[nH]cn1)NC(=O)CNC(=O)[C@@H](NC(=O)[C@H](C)NC(=O)[C@H](Cc1c[nH]c2ccccc12)NC(=O)[C@H](C)NC(C)=O)C(C)C)C(N)=O [Peptide No. 4] | 40 | 35.1 | 33.2 | – | – | – | – | – | – |
| CSCC[C@H](NC(=O)[C@H](CC(C)C)NC(=O)[C@H](Cc1cnc[nH]1)NC(=O)CNC(=O)[C@@H](NC(=O)[C@H](C)NC(=O)[C@H](Cc1c[nH]c2ccccc12)NC(=O)[C@H](CCC(N)=O)NC(=O)[C@H](CC(N)=O)NC(=O)CNC(=O)[C@H](CC(C)C)NC(=O)[C@H](CCCN=C(N)N)NC(=O)[C@H](CCC(N)=O)NC(=O)[C@@H]1CCC(=O)N1)C(C)C)C(N)=O [Bombesin] | 100 | – | – | 32.1 | 34.7 | 33.8 | 33 | – | – |
| CSCC[C@H](NC(=O)[C@H](CC(C)C)NC(=O)[C@H](Cc1c[nH]cn1)NC(=O)[C@@H](C)NC(=O)[C@@H](NC(=O)[C@H](C)NC(=O)[C@H](Cc1c[nH]c2ccccc12)NC(=O)[C@H](C)NC(C)=O)C(C)C)C(N)=O [Peptide No. 2] (Ac-AWAV[dA]HLM-NH2) | 150 | 34.3 | 31.9 | – | – | – | – | 30.4 | – |
| [d(pGlu)]WAV[dA]HLM-NH2 | – | – | – | – | – | – | – | – | more potent than neurotensin, it is less potent than bombesin |
| CSCC[C@H](NC(=O)[C@H](CC(C)C)NC(=O)[C@H](Cc1c[nH]cn1)NC(=O)[C@@H](C)NC(=O)[C@@H](NC(=O)[C@H](C)NC(=O)[C@H](Cc1c[nH]c2ccccc12)NC(=O)[C@@H](CCC(N)=O)NC(C)=O)C(C)C)C(N)=O [Peptide No. 3] | 150 | 32.3 | 31.9 | – | – | – | – | – | – |
| CSCC[C@H](NC(=O)[C@H](CC(C)C)NC(=O)[C@H](Cc1c[nH]cn1)NC(=O)CNC(=O)[C@@H](NC(=O)[C@H](C)NC(=O)[C@H](Cc1c[nH]c2ccccc12)NC(=O)[C@H](Cc1c[nH]cn1)NC(C)=O)C(C)C)C(N)=O [Peptide No. 1] | 100 | 34.3 | 33.2 | – | – | – | – | 32.6 | – |
